Test system: human PBMCs
Test: proliferation of human PBMCs (Cell-Titer Glo 2.0)
Assay type: cell-based
Conditions: Compound 1 0.01 μM to 10 μM, 10 days; FIG. 8B
Method: Next, the proliferation of PMBCs was examined following treatment with DHX9 inhibitor using the following assay.
Human PBMCs were thawed from a frozen cryotube in a 37° C. water bath and transferred to a flask with medium X-Vivo 15 supplemented with 5% Fetal Bovine Serum (FBS), 1% PenStrep, and 1% Glutamax. Flasks were incubated at 37 C for 30 minutes. PBMCs were harvested from flask and counted. PBMCs were diluted in medium and added to 96 well plates at 100,000 PBMCs per well. A stimulus mixture containing IL-15 at 1 ng/well, IL-21 at 5 ng/well, and CD40L at 5 ng/well was added to each well. Test compounds were prepared in DMSO stock solution and serially diluted. Compound (0.1% final DMSO concentration) was added to each well. DMSO was used as a negative control (high control, HC) and staurosporine was used a positive control (low control, LC). Plates were incubated at 37 C for 0, 2, 4, 6, 8, 10 days. Every other day, medium was replenished with stimulus and diluted compounds.
At each CTG time point, plate was removed from incubator and Cell-Titer Glo 2.0 reagent was added to each well according to manufacturer's (Promega) protocol and detected on an Envision. The inhibition activity was calculated following the formula below:
% Inhibition=100×(ReadoutHC−ReadoutSample)/(ReadoutHC−ReadoutLC)
PBMCs were exposed to Compound 1 at concentrations ranging from 0.01 μM to 10 μM for 10 days. […]

Cc1cccnc1-c1csc(C(=O)Nc2cc(Cl)cc(NS(C)(=O)=O)c2)c1 [Compound 1, N-(3-chloro-5-methanesulfonamidophenyl)-4-(3-methylpyridin-2-yl)thiophene-2-carboxamide] was tested, and the “proliferation of PBMCs” value was “did not inhibit proliferation of PBMCs”.

Reference: patent US20260297679A1, “ASSAYS FOR MONITORING INHIBITION OF RNA HELICASE DHX9” (ACCENT THERAPEUTICS, INC., priority 2023, published 2026)
